The source of these data is patent publication US10858398B2, “Lytic peptide biosensor and methods of making and using the same” (Deetex, LLC, priority 2018, dated 2020).

What all share (assay type): cell-based
Experiment [1] concerns E. coli bacterial cells induced to produce β-galactosidase. Description: β-galactosidase release colour change assay (X-gal), induced bacteria in welled plate. The settings on record: then X-gal 15 minutes at 37° C. The procedure: (§1) Non-induced E. coli cells were deposited in wells F1-F3 (control). The cells were treated as follows: Group 1, 10% SDS was added to wells A1-A3, B1-B3, and C1-C3; Group 2, 100 μM LL-37 was added to D1-D3; Group 3, untreated induced bacterial cells in wells E1-E3 (control); Group 4, 100 μM LL-37 added to wells F1-F3. Samples were incubated for 15 minutes post-treatment, and 20 μL of 20 mg/mL X-gal substrate was added to each well and allowed to incubate for 15 minutes at 37° C.
A plate was designed as set forth in FIG. 6a: Group 5, induced bacterial cells treated with 100 uM LL-37 (wells A1-A3, B1-B3, C1-C3); Group 6, induced bacterial cells treated with 10% PBS (wells D1-D3), Group 7, non-induced bacteria treated with a lytic agent (wells E1-E3); Group 8, non-induced bacteria untreated (wells F1-F3); Group 9, induced bacteria treated with a lytic agent (wells G1-G3); and Group 10, untreated induced bacteria.
Samples were incubated for 15 minutes post-treatment, and 20 uL of 20 mg/mL X-gal substrate was added to each well and allowed to incubate for 15 minutes at 37° C.
A plate was designed as set forth in FIG. 7a: Group 11, induced bacteria were treated with 100 uM LL-37 (wells A1-A3, B1-B3, and C1-C3); Group 12, induced bacteria that were untreated (wells D1-D3). […]

Another experiment deals with lacZ transfected E. coli. Description: Bacterial Assay: 1:2 dilution series of LL-37 on IPTG-induced lacZ transfected E. coli, X-gal colour change. The conditions noted are these: 15 minutes room temperature, X-gal 15 minutes 37° C. The protocol: E. coli cells transfected with the lacZ gene that encodes the protein β-galactosidase were obtained. The cells were plated to produce isolate colonies that were then selected.
An isolate colony of lacZ transfected E. coli from the plate of Example 2 was looped and inoculated into 10 mL of RPMI 1640 medium+glucose (available from ThermoFisher Scientific, Waltham, Mass.) and incubated at 37° C. for 24 hours.
The liquid bacterial culture from Example 3 was removed from incubation and centrifuged at 1200 RPM for 7 minutes. The supernatant was removed, and the bacterial pellet was resuspended in 1 mL of RPMI 1640 (−glucose) liquid tissue culture medium as Sample A. A 15 mL centrifuge tube was filled with induction media (8.9 mL RPMI 1640 (−glucose), 100 μL induced IPTG. 1 mL of the resuspended bacterial culture from Sample A was added to the new tube as Sample B, for a final volume of 10 mL. Sample B was incubated at 37° C. for 60 minutes.
After incubation, 100 μL of Sample B was transferred to each of wells A1-A12 and B1-B12. 10 μL of a 2000 μM LL-37 stock solution was then added to well A1, and a 1:2 dilution was conducted across wells A2-A11. The dilution was repeated for wells B1-B11. No LL-37 solution was added to wells A12 and B12 (controls). The plate was incubated for 15 minutes at room temperature. […]

For experiment [2], the system named is Non-induced E. coli cells. Description: β-galactosidase release colour change assay (X-gal), non-induced control cells. The conditions noted are these: 100 μM LL-37; non-induced cells (Group 4); 15 minutes, then X-gal 15 minutes at 37° C. The protocol:
as §1

Experiment [3] relates to induced bacteria, lyophilized. Description: Bacterial Assay IV: lyophilized and rehydrated induced bacteria, X-gal colour change in tubes. The settings on record: 100 uM LL-37, rehydrated after 72 hours, X-gal 15 minutes at 37° C. The protocol: Aliquots of induced bacteria were prepared with 1 mL of the sample dispensed into three Eppendorf tubes. Samples were then lyophilized. After 72 hours to ensure stability, tubes were rehydrated with 1 mL of RPMI 1640 (+) Glucose culture medium and treated. 50 uL of 20 mg/mL X-gal substrate was added to each tube and allowed to incubate for 15 minutes at 37° C.

With `CCCCCCCCCCCCOS(=O)(=O)[O-].[Na+]` [SDS], the “colorimetric result (color change pink to blue, release of β-galactosidase)” value in experiment [1] (10% SDS, 15 minutes post-treatment) is recorded as “mild color change”.

For “LL-37: anti-microbial alpha-helical 37 amino acid peptide released from human cathelicidin; membrane lytic peptide, human or synthetic”, the “visual color change, higher concentrations of dilution series” value with lacZ transfected E. coli (wells A1-A5 and B1-B5, 10 μL of 2000 μM stock in well 1, then 1:2 dilution) was “appeared blue”. Further, the “visual color change, lower concentrations of dilution series” value in the experiment with lacZ transfected E. coli (wells A6-A11 and B6-B11 of the 1:2 dilution series) is “remained pink”. In addition, in experiment [1] (100 μM LL-37, 15 minutes post-treatment), the “colorimetric result (color change pink to blue, release of β-galactosidase)” value is “completely converted the well color from pink to blue”. Further, in experiment [2], the “colorimetric result (color change pink to blue)” value is on record as “remained pink”. Moreover, in experiment [3], the “tube color change pink to blue (release of β-galactosidase)” value is listed as “converted the tube color from pink to blue”.
